Assay results from PubChem BioAssay AID1963833 (Molecular Pharmacology Branch, DTP, NCI, 2024).

Test system: 883617-216-R-J1-PDC complex spheroid viability
Test: Anticancer human tumor 883617-216-R-J1-PDC patient-derived bladder carcinoma cell line growth inhibition [POLQ]
Details: for IC50: curve of first compound; for viability, T/C: stronger effect = lower value
In short: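 Three-cell-type spheroids modelling solid tumor plus stroma served as the readout system; POL inhibitors were tested individually and in combination, concentration ranges set by clinical Cmax where known.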

[1] = second compound 0.0316 µM, first compound 0.0316 µM
[2] = second compound 0.0316 µM, first compound 0.1 µM
[3] = second compound 0.0316 µM, first compound 0.316 µM
[4] = second compound 0.0316 µM, first compound 1 µM
[5] = second compound 0.0316 µM, first compound 3.16 µM
[6] = second compound 0.0316 µM, first compound 10 µM
[7] = second compound 0.1 µM, first compound 0.0316 µM
[8] = second compound 0.1 µM, first compound 0.1 µM
[9] = second compound 0.1 µM, first compound 0.316 µM
[10] = second compound 0.1 µM, first compound 1 µM
[11] = second compound 0.1 µM, first compound 3.16 µM
[12] = second compound 0.1 µM, first compound 10 µM
[13] = second compound 0.316 µM, first compound 0.0316 µM
[14] = second compound 0.316 µM, first compound 0.1 µM
[15] = second compound 0.316 µM, first compound 0.316 µM
[16] = second compound 0.316 µM, first compound 1 µM
[17] = second compound 0.316 µM, first compound 3.16 µM
[18] = second compound 0.316 µM, first compound 10 µM
[19] = second compound 1 µM, first compound 0.0316 µM
[20] = second compound 1 µM, first compound 0.1 µM
[21] = second compound 1 µM, first compound 0.316 µM
[22] = second compound 1 µM, first compound 1 µM
[23] = second compound 1 µM, first compound 3.16 µM
[24] = second compound 1 µM, first compound 10 µM
[25] = second compound 3.16 µM, first compound 0.0316 µM
[26] = second compound 3.16 µM, first compound 0.1 µM
[27] = second compound 3.16 µM, first compound 0.316 µM
[28] = second compound 3.16 µM, first compound 1 µM
[29] = second compound 3.16 µM, first compound 3.16 µM
[30] = second compound 3.16 µM, first compound 10 µM
[31] = second compound 10 µM, first compound 0.0316 µM
[32] = second compound 10 µM, first compound 0.1 µM
[33] = second compound 10 µM, first compound 0.316 µM
[34] = second compound 10 µM, first compound 1 µM
[35] = second compound 10 µM, first compound 3.16 µM
[36] = second compound 10 µM, first compound 10 µM
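Also: spheroids exposed to compounds for seven days before readout.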
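For viability, T/C in this document: 100% = DMSO vehicle control viability.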

## CCc1cc2c(N3CCc4c(cc(Cn5ccnc5)cc4-c4cn(C)nc4C(F)(F)F)C3=O)ccnc2c(OC)n1 + Cc1cccc(N(C)C(=O)C2C(O)CCN2c2nc(C)cc(C(F)(F)F)c2C#N)c1
Second compound 0.0316 µM
  IC50: > 10 µM
Second compound 0.1 µM
  IC50: > 10 µM
Second compound 0.316 µM
  IC50: 8.04 µM
Second compound 1 µM
  IC50: > 10 µM
Second compound 3.16 µM
  IC50: 8.36 µM
Second compound 10 µM
  IC50: 8.04 µM
[1]
  viability, T/C: 91.7%
[2]
  viability, T/C: 103%
[3]
  viability, T/C: 82.1%
[4]
  viability, T/C: 82%
[5]
  viability, T/C: 70%
[6]
  viability, T/C: 53.5%
[7]
  viability, T/C: 93%
[8]
  viability, T/C: 107%
[9]
  viability, T/C: 84.2%
[10]
  viability, T/C: 96.6%
[11]
  viability, T/C: 73.4%
[12]
  viability, T/C: 50.7%
[13]
  viability, T/C: 102%
[14]
  viability, T/C: 104%
[15]
  viability, T/C: 101%
[16]
  viability, T/C: 98%
[17]
  viability, T/C: 76.6%
[18]
  viability, T/C: 43.7%
[19]
  viability, T/C: 98.4%
[20]
  viability, T/C: 101%
[21]
  viability, T/C: 87.8%
[22]
  viability, T/C: 94.4%
[23]
  viability, T/C: 68.2%
[24]
  viability, T/C: 61.1%
[25]
  viability, T/C: 99.6%
[26]
  viability, T/C: 103%
[27]
  viability, T/C: 87.7%
[28]
  viability, T/C: 86.9%
[29]
  viability, T/C: 66.1%
[30]
  viability, T/C: 47%
[31]
  viability, T/C: 115%
[32]
  viability, T/C: 104%
[33]
  viability, T/C: 88.3%
[34]
  viability, T/C: 92.9%
[35]
  viability, T/C: 76.6%
[36]
  viability, T/C: 42.6%

## COc1cc2cc(C(=O)CCC(=O)O)sc2cc1OC + Cc1cccc(N(C)C(=O)C2C(O)CCN2c2nc(C)cc(C(F)(F)F)c2C#N)c1
Second compound 0.0316 µM
  IC50: > 10 µM
Second compound 0.1 µM
  IC50: > 10 µM
Second compound 0.316 µM
  IC50: > 10 µM
Second compound 1 µM
  IC50: > 10 µM
Second compound 3.16 µM
  IC50: > 10 µM
Second compound 10 µM
  IC50: > 10 µM
[1]
  viability, T/C: 99.1%
[2]
  viability, T/C: 101%
[3]
  viability, T/C: 109%
[4]
  viability, T/C: 106%
[5]
  viability, T/C: 101%
[6]
  viability, T/C: 115%
[7]
  viability, T/C: 98.3%
[8]
  viability, T/C: 107%
[9]
  viability, T/C: 111%
[10]
  viability, T/C: 87.8%
[11]
  viability, T/C: 95.6%
[12]
  viability, T/C: 102%
[13]
  viability, T/C: 115%
[14]
  viability, T/C: 114%
[15]
  viability, T/C: 89.5%
[16]
  viability, T/C: 100%
[17]
  viability, T/C: 95.9%
[18]
  viability, T/C: 102%
[19]
  viability, T/C: 91.7%
[20]
  viability, T/C: 98.5%
[21]
  viability, T/C: 90.2%
[22]
  viability, T/C: 118%
[23]
  viability, T/C: 92.8%
[24]
  viability, T/C: 102%
[25]
  viability, T/C: 94.9%
[26]
  viability, T/C: 115%
[27]
  viability, T/C: 116%
[28]
  viability, T/C: 112%
[29]
  viability, T/C: 112%
[30]
  viability, T/C: 106%
[31]
  viability, T/C: 121%
[32]
  viability, T/C: 108%
[33]
  viability, T/C: 122%
[34]
  viability, T/C: 116%
[35]
  viability, T/C: 119%
[36]
  viability, T/C: 117%

## COc1ccc([C@@H](O)c2cc(-c3ncnc4cc(N5CCOCC5)ccc34)c(F)cc2Cl)nn1 + Cc1cccc(N(C)C(=O)C2C(O)CCN2c2nc(C)cc(C(F)(F)F)c2C#N)c1
Second compound 0.0316 µM
  IC50: 2.68 µM
Second compound 0.1 µM
  IC50: 2.21 µM
Second compound 0.316 µM
  IC50: 2.51 µM
Second compound 1 µM
  IC50: 2.53 µM
Second compound 3.16 µM
  IC50: 2.48 µM
Second compound 10 µM
  IC50: 3.57 µM
[1]
  viability, T/C: 90.4%
[2]
  viability, T/C: 105%
[3]
  viability, T/C: 76%
[4]
  viability, T/C: 75.5%
[5]
  viability, T/C: 42.4%
[6]
  viability, T/C: 36.9%
[7]
  viability, T/C: 98.3%
[8]
  viability, T/C: 84%
[9]
  viability, T/C: 85.8%
[10]
  viability, T/C: 67.9%
[11]
  viability, T/C: 41%
[12]
  viability, T/C: 31.4%
[13]
  viability, T/C: 99%
[14]
  viability, T/C: 101%
[15]
  viability, T/C: 86.3%
[16]
  viability, T/C: 71.6%
[17]
  viability, T/C: 43.5%
[18]
  viability, T/C: 33.4%
[19]
  viability, T/C: 100%
[20]
  viability, T/C: 98.3%
[21]
  viability, T/C: 81.9%
[22]
  viability, T/C: 63.4%
[23]
  viability, T/C: 48.4%
[24]
  viability, T/C: 32.8%
[25]
  viability, T/C: 107%
[26]
  viability, T/C: 99.8%
[27]
  viability, T/C: 90.4%
[28]
  viability, T/C: 61.4%
[29]
  viability, T/C: 49.7%
[30]
  viability, T/C: 33.8%
[31]
  viability, T/C: 117%
[32]
  viability, T/C: 92.5%
[33]
  viability, T/C: 90.5%
[34]
  viability, T/C: 65%
[35]
  viability, T/C: 52.3%
[36]
  viability, T/C: 35.6%

## O=C(Nc1ccc(O)c(NS(=O)(=O)c2ccc(F)cc2)c1)c1ccc(-c2ccccc2)cc1 + Cc1cccc(N(C)C(=O)C2C(O)CCN2c2nc(C)cc(C(F)(F)F)c2C#N)c1
Second compound 0.0316 µM
  IC50: > 10 µM
Second compound 0.1 µM
  IC50: > 10 µM
Second compound 0.316 µM
  IC50: > 10 µM
Second compound 1 µM
  IC50: > 10 µM
Second compound 3.16 µM
  IC50: > 10 µM
Second compound 10 µM
  IC50: > 10 µM
[1]
  viability, T/C: 96.5%
[2]
  viability, T/C: 90.4%
[3]
  viability, T/C: 86.6%
[4]
  viability, T/C: 91.7%
[5]
  viability, T/C: 81.9%
[6]
  viability, T/C: 65.5%
[7]
  viability, T/C: 98.6%
[8]
  viability, T/C: 98%
[9]
  viability, T/C: 96.5%
[10]
  viability, T/C: 80%
[11]
  viability, T/C: 79.3%
[12]
  viability, T/C: 66.3%
[13]
  viability, T/C: 97.6%
[14]
  viability, T/C: 103%
[15]
  viability, T/C: 95.3%
[16]
  viability, T/C: 93.1%
[17]
  viability, T/C: 83.3%
[18]
  viability, T/C: 68.2%
[19]
  viability, T/C: 97.9%
[20]
  viability, T/C: 99.7%
[21]
  viability, T/C: 99.1%
[22]
  viability, T/C: 82.9%
[23]
  viability, T/C: 88.3%
[24]
  viability, T/C: 71.1%
[25]
  viability, T/C: 94.6%
[26]
  viability, T/C: 103%
[27]
  viability, T/C: 85.3%
[28]
  viability, T/C: 105%
[29]
  viability, T/C: 80.8%
[30]
  viability, T/C: 75.4%
[31]
  viability, T/C: 105%
[32]
  viability, T/C: 102%
[33]
  viability, T/C: 94.2%
[34]
  viability, T/C: 91%
[35]
  viability, T/C: 81.5%
[36]
  viability, T/C: 57.1%
